A short description of data set [1]: ADC stability study: % aggregates by SEC after incubation at 37° C. for 168 h. In kind it is physicochemical. The method, then: Size Exclusion Chromatography: Size exclusion chromatography (SEC) was performed for quality control of each ADCs by measuring monomer percentage of the conjugate. The analysis was performed on analytical column Superdex 200 Increase 5/150 GL (GE Healthcare, 28990945) in isocratic conditions 100% PBS pH7.4 (Sigma Life Science, P3813, 10PAK), flow 0.45 mI/min for 12 minutes. The % aggregate fraction of the conjugate sample was quantified based on the peak area absorbance at 280 nm. Its calculation was based on the ratio between the high molecular weight eluent at 280 nm divided by the sum of peak area absorbance at the same wavelength of the high molecular weight and monomeric eluents multiplied by 100.
Characterization of the exemplary ADCs is summarized in Table 13 (coupling, LC-MS method, OAR, aggregation status, ADO stability and yield). The average OAR values were determined using the above LC-MS methods and the percentage of aggregates was measured by size exclusion chromatography (SEC) during the quality control of the ADO and after the stability study (incubation at 37° C. for 168 h).
A general note: SEC sorts molecules by how far they enter the pores of the column.

The test system of another data set is H1650 cells. The experiment in a line: CellTiterGlo (CTG) cell viability, 3D, 120 h, H1650 (Example 8). As to conditions: H1650 3D. In kind it is cell-based, human. Background: In ATP-based viability assays light output follows the ATP content of the culture.
The mark [2] stands for this setting: experiment n1, read-out: H1650 3D CTG IC50 n1.
Where [3] appears, read: experiment n2, read-out: H1650 3D CTG IC50 n2.
The mark [4] stands for this setting: mean of n1 and n2, read-out: H1650 3D CTG IC50 Mean of n1 and n2.

As a reminder, the IC50 is the concentration that inhibits the measured activity by half.

Where two headings read alike, the source gives them in different places.

Consider `Cc1cc(N(C)c2ccc(-c3cnn(C[C@]45C[C@]6(C)C[C@](C)(C4)C[C@@](OCCN(CCCO)C(=O)OCc4ccc(NC(=O)[C@H](CCCNC(N)=O)CC(=O)[C@@H](NC(=O)CCOCCN7C(=O)CC(C)C7=O)C(C)C)cc4)(C6)C5)c3C)c(C(=O)O)n2)nnc1Nc1nc2ccccc2s1` (mixture of isomers) [Ab C - L9C-P26], for which the “Stab w1 +37° C. % Agg (by SEC)” value in data set [1] was 3%. For the same compound, the half-inhibitory concentration (IC50) with H1650 cells (setting [2]) is 0.12 nM; with H1650 cells (setting [3]), 0.11 nM; with H1650 cells (setting [4]), 0.12 nM.
Turning to `Cc1c(Nc2nc3ccccc3s2)nnc2c1CCCN2c1nc(C(=O)[O-])c(CCCOc2ccc(C#CC[N+](C)(C)Cc3ccc(NC(=O)[C@H](CCCNC(N)=O)NC(=O)[C@@H](NC(=O)CCOCCN4C(=O)CC(C)C4=O)C(C)C)cc3)cc2F)[nH]1` (stereo partly shown) [Ab C - L9A-P1], the “Stab w1 +37° C. % Agg (by SEC)” value in data set [1] was determined as 6%. Also, the IC50 turned out to be 0.49 nM with H1650 cells (setting [2]), 0.33 nM in the data set with H1650 cells (setting [3]) and 0.41 nM in the data set on H1650 cells (setting [4]).
In the same order, the values of `Cc1c(Nc2nc3ccccc3s2)nnc2c1CCCN2c1nc(C(=O)[O-])c(CCCOc2ccc(C#CC(C)N3CC[N+](C)(Cc4ccc(NC(=O)[C@H](CCCNC(N)=O)NC(=O)[C@@H](NC(=O)CCOCCN5C(=O)CC(C)C5=O)C(C)C)cc4)CC3)cc2F)s1` (stereo partly shown) [Ab C - L9A-P8] are 7%, 0.14 nM, 0.3 nM and 0.22 nM.
In the case of `Cc1cc(N(C)c2nc(C(=O)[O-])c(CCCOc3ccc(C#CC(C)[N+](C)(C)Cc4ccc(NC(=O)[C@H](CCCNC(N)=O)NC(=O)[C@@H](NC(=O)CCOCCN5C(=O)CC(C)C5=O)C(C)C)cc4)cc3F)s2)nnc1Nc1nc2ccccc2s1` (stereo partly shown) [Ab C - L9A-P11], the “Stab w1 +37° C. % Agg (by SEC)” value in data set [1] came to 2.4%. The half-maximal inhibitory concentration (IC50) in the data set with H1650 cells (setting [2]), with H1650 cells (setting [3]) and in the data set on H1650 cells (setting [4]) was 0.5 nM each time.
On to `CC[N+](C)(CC#Cc1ccc(OCCCc2sc(N3CCCc4c3nnc(Nc3nc5ccccc5s3)c4C)nc2C(=O)O)c(F)c1)Cc1ccc(NC(=O)[C@H](CCCNC(N)=O)NC(=O)[C@@H](NC(=O)CCOCCN2C(=O)CC(C)C2=O)C(C)C)cc1` (stereo partly shown) [Ab C - L9A-P13], for which the “Stab w1 +37° C. % Agg (by SEC)” value in data set [1] is reported as 0.2%. Besides, the IC50 was found to be 0.9 nM with H1650 cells (setting [2]), 0.7 nM in the data set with H1650 cells (setting [3]) and 0.8 nM in the data set on H1650 cells (setting [4]).
The matching figures for `CC[N+](CC)(CC#Cc1ccc(OCCCc2sc(N3CCCc4c3nnc(Nc3nc5ccccc5s3)c4C)nc2C(=O)[O-])c(F)c1)Cc1ccc(NC(=O)[C@H](CCCNC(N)=O)NC(=O)[C@@H](NC(=O)CCOCCN2C(=O)CC(C)C2=O)C(C)C)cc1` (stereo partly shown) [Ab C - L9A-P14]: 7%, 1.3 nM, 0.4 nM and 0.85 nM.
Turning to `Cc1c(NC2Nc3ccccc3S2)nnc2c1CCCN2c1nc(C(=O)[O-])c(CCCOc2ccc(C#CC[N+]3(Cc4ccc(NC(=O)[C@H](CCCNC(N)=O)NC(=O)[C@@H](NC(=O)CCCCCN5C(=O)CC(C)C5=O)C(C)C)cc4)CCCCC3)cc2F)s1` (stereo partly shown) [Ab C - L9A-P18], the “Stab w1 +37° C. % Agg (by SEC)” value in data set [1] was found to be 3%. The IC50 with H1650 cells (setting [2]) is 1.2 nM; in the data set with H1650 cells (setting [3]) it was 1.25 nM; in the data set on H1650 cells (setting [4]) it was 1.23 nM.
The matching figures for `C=C(C)CCCC[C@](C)(CC(=C)[C@@](C)(CC(=C)CCCCCC1C(=C)CC(C)C1=C)C(C)C)C(=C)Cc1ccc(CC(C)(C)CCC[C@]23C[C@]4(C)C[C@](C)(C2)C[C@@](CC2C=CC(c5ccc(C6CCCc7c6ccc(CC6=Cc8ccccc8C6)c7C)cc5C(=C)C)=C2C)(C4)C3)cc1` (stereo partly shown) [Ab C - L9A-P27]: 16%, 0.3 nM, 0.22 nM and 0.26 nM.
In the same order, the values of `CC(=O)CCCC[C@](C)(CC(=O)[C@@](C)(CC(=O)CCCCCC1C(=O)CC(C)C1=O)C(C)C)C(=O)Cc1ccc(CC(C)(C)CC#Cc2ccc(CCCCC3=C(C(C)=O)C=C(C4CCCc5c4ccc(CC4=Cc6ccccc6C4)c5C)C3)cc2)cc1` (stereo partly shown) [Ab C - L9A-P28] are 15%, 0.21 nM, 0.2 nM and 0.21 nM.
Take `Cc1c(Nc2nc3ccccc3s2)nnc2c1CCCN2c1nc(C(=O)O)c(CCCOc2ccc(C#CCN(CCN(C)C)C(=O)OCc3ccc(NC(=O)[C@H](CCCNC(N)=O)NC(=O)[C@@H](NC(=O)CCOCCN4C(=O)CC(C)C4=O)C(C)C)cc3)cc2F)s1` (stereo partly shown) [Ab C - L9C-P12]: in data set [1], the “Stab w1 +37° C. % Agg (by SEC)” value was 4%. Further, the concentration for half-maximal inhibition (IC50) in the data set on H1650 cells (setting [2]) is 0.6 nM; in the data set with H1650 cells (setting [3]), 0.9 nM; in the data set with H1650 cells (setting [4]) it was 0.75 nM.
In the same order, the values of `Cc1c(Nc2nc3ccccc3s2)nnc2c1CC(OCCN(C)C(=O)OCc1ccc(NC(=O)[C@H](CCCNC(N)=O)NC(=O)[C@@H](NC(=O)CCOCCN3C(=O)CC(C)C3=O)C(C)C)cc1)CN2c1nc(C(=O)O)c(CCCOc2ccc(C#CCN(C)C)cc2F)s1` (stereo partly shown) [Ab C - L9C-P16] are 2.4%, 3.9 nM, 4.2 nM and 4.05 nM.
The matching figures for `Cc1c(Nc2nc3ccccc3s2)nnc2c1CCCN2c1nc(C(=O)O)c(CCCOc2ccc(C#CCN3CCN(C(=O)OCc4ccc(NC(=O)[C@H](CCCNC(N)=O)NC(=O)[C@@H](NC(=O)CCOCCN5C(=O)CC(C)C5=O)C(C)C)cc4)CC3)cc2F)s1` (stereo partly shown) [Ab C - L9C-P17]: 22%, 2.85 nM, 2.51 nM and 2.68 nM.
The matching figures for `C=C(C)CCCC[C@](C)(CC(=C)[C@@](C)(CC(=C)CCCCCC1C(=C)CC(C)C1=C)C(C)C)C(=C)Cc1ccc(CCC(=C)C(CCCCC)CCC[C@]23C[C@]4(C)C[C@](C)(C2)C[C@@](CC2C=CC(c5ccc(C(C)c6ccc(CC7=Cc8ccccc8C7)c(C)c6)cc5C(=C)C)=C2C)(C4)C3)cc1` (stereo partly shown) [Ab C - L9C-P29]: 16%, 0.13 nM, 0.09 nM and 0.11 nM.
Take `C=C(C)CCCC[C@](C)(CC(=C)[C@@](C)(CC(=C)CCCCCC1C(=C)CC(C)C1=C)C(C)C)C(=C)Cc1ccc(CCC(=C)C2CCC(CCC[C@]34C[C@]5(C)C[C@](C)(C3)C[C@@](CC3C=CC(c6ccc(C7CCCc8c7ccc(CC7=Cc9ccccc9C7)c8C)cc6C(=C)C)=C3C)(C5)C4)CC2)cc1` (stereo partly shown) [Ab C - L9C-P31]: the “Stab w1 +37° C. % Agg (by SEC)” value in data set [1] amounted to 6%. The IC50 was found to be 0.07 nM in the data set with H1650 cells (setting [2]), 0.1 nM in the data set on H1650 cells (setting [3]) and 0.09 nM in the data set with H1650 cells (setting [4]).
The matching figures for `Cc1c(Nc2nc3ccccc3s2)nnc2c1CCCN2c1nc(C(=O)O)c(CCCOc2ccc(C#CCN(C)C(=O)OCc3ccc(NC(=O)[C@H](CCCNC(N)=O)NC(=O)[C@@H](NC(=O)CCOCCN4C(=O)CC(C)C4=O)C(C)C)cc3S(=O)(=O)O)cc2F)s1` (stereo partly shown) [Ab C - L27C-P3]: 17%, 1.4 nM, 2.6 nM and 2 nM.
In the same order, the values of `Cc1cc(N(C)c2nc(C(=O)O)c(CCCOc3ccc(C#CCN(C)C(=O)OCc4ccc(NC(=O)[C@H](C)NC(=O)[C@@H](NC(=O)CCOCCN5C(=O)CC(C)C5=O)C(C)C)cc4CC[C@@H]4O[C@H](C(=O)O)[C@@H](O)[C@H](O)[C@H]4O)cc3F)s2)nnc1Nc1nc2ccccc2s1` (stereo partly shown) [Ab C -L106C-P7] are 29%, 1.8 nM, 1.5 nM and 1.65 nM.
